In ChEMBL document CHEMBL3124935, “Synthesis and study of cytotoxic activity of 1,2,4-trioxane- and egonol-derived hybrid molecules against Plasmodium falciparum and multidrug-resistant human leukemia cells” (Eur J Med Chem, 2014):

What was measured:
Plasmodium falciparum = experiment: Antimalarial activity against Plasmodium falciparum 3D7 assessed as growth inhibition after 3 days by HRP2 based ELISA; format: functional, organism-based; conditions: 3D7, 72 h
CCRF-CEM [1] = experiment: Resistance ratio of IC50 for human multidrug-resistant CEM/ADR5000 cells expressing p-glycoprotein to IC50 for human CCRF-CEM cells; format: functional
CCRF-CEM [2] = experiment: Cytotoxicity against human CCRF-CEM cells by resazurin assay; format: functional, cell-based
[3] = Cytotoxicity against human multidrug-resistant CEM/ADR5000 cells expressing p-glycoprotein by resazurin assay; format: functional, cell-based
[4] = Cytotoxicity against human multidrug-resistant CEM/ADR5000 cells expressing p-glycoprotein at 400 uM by resazurin assay; format: functional, cell-based

Compound | IC50 (Plasmodium falciparum) [nM] | Ratio IC50 (CCRF-CEM [1]) | IC50 (CCRF-CEM [2]) [nM] | IC50 [3] [µM] | IC50 [4]
C[C@H]1[C@H](OC(=O)CCC(=O)NCC(O)CNC(=O)CCC(=O)O[C@@H]2O[C@@H]3O[C@@]4(C)CC[C@H]5[C@H](C)CC[C@@H]([C@H]2C)[C@@]35OO4)O[C@@H]2O[C@@]3(C)CC[C@H]4[C@H](C)CC[C@@H]1[C@@]24OO3 (some centres undefined) | 0.32 | – | – | – | –
C[C@H]1[C@H](OC(=O)CCC(=O)NCCCCCCCCNC(=O)CCC(=O)O[C@@H]2O[C@@H]3O[C@@]4(C)CC[C@H]5[C@H](C)CC[C@@H]([C@H]2C)[C@@]35OO4)O[C@@H]2O[C@@]3(C)CC[C@H]4[C@H](C)CC[C@@H]1[C@@]24OO3 | 0.3 | – | – | – | –
COc1cc(CCCOC(=O)CCC(=O)O[C@@H]2O[C@@H]3O[C@@]4(C)CC[C@H]5[C@H](C)CC[C@@H]([C@H]2C)[C@@]35OO4)cc2cc(-c3ccc4c(c3)OCO4)oc12 | 2.3 | 6.12 | 180 | 1.12 | –
C[C@@H]1CC[C@H]2[C@@H](C)C(CCCO)O[C@@H]3O[C@@]4(C)CC[C@@H]1[C@]32OO4 (some centres undefined) | – | – | 174000 | – | Not Active
C[C@@H]1CC[C@H]2[C@@H](C)C(=O)O[C@@H]3O[C@@]4(C)CC[C@@H]1[C@]32OO4 [ARTEMISININ] | – | 0.73 | – | – | –
C[C@H]1[C@H](OC(=O)CCC(=O)O)O[C@@H]2O[C@@]3(C)CC[C@H]4[C@H](C)CC[C@@H]1[C@@]24OO3 [ARTESUNATE] | 0.82 | 0.67 | – | 1.2 | –
COc1cccc2c1C(=O)c1c(O)c3c(c(O)c1C2=O)C[C@@](O)(C(=O)CO)C[C@@H]3O[C@H]1C[C@H](N)[C@H](O)[C@H](C)O1 [DOXORUBICIN] | – | 2585 | 9 | 23.3 | –
COc1cc(CCCO)cc2cc(-c3ccc4c(c3)OCO4)oc12 [EGONOL] | 25400 | 1.7 | 5750 | 9.78 | –
